Where two headings read alike, the source gives them in different places. Where only a bound is given, the exact number is not on record here.

Test [1] relates to HCV genotype 1a (H77 strain) replicon in HUH-7 cells. Description: HCV replicon luciferase reporter assay, genotype 1a. Format: cell-based. The conditions noted are these: Hepatitis C virus, Huh-7, 72 h, HCV genotype 1a replicon luciferase, 3 days incubation. The method, boiled down:
(§1)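 Replicon inhibition for both genotypes was measured as Renilla luciferase signal (EnduRen, 7.5 μM final, 2 h) after 3-day, 37° C exposure of replicon-bearing HUH-7 cells in 4% FCS DMEM, 0.5% DMSO. The 1b construct carries S1179I; the 1a H77 construct carries P1496L and S2204I. Twenty-point, 3-fold dilutions were fitted four-parametrically for EC50, and CC50 was taken from multiplexed Cell Titer-Blue.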
On the technique in general: In antiviral work, replicon cells carry a viral genome segment that copies itself.

Test [2] relates to HCV genotype 1b (Con1) replicon in HUH-7 cells. Description: HCV replicon luciferase reporter assay, genotype 1b. The class given is cell-based. Conditions: Hepatitis C virus, Huh-7, 72 h, HCV genotype 1b replicon luciferase, 3 days incubation. A digest of the protocol: as §1

In general, EC50 refers to the midpoint of the concentration-response curve. Regarding `C[C@H]1CC/C=C\[C@@H]2C[C@@]2(C(=O)NS(=O)(=O)C2CC2)NC(=O)[C@@H]2C[C@@H](Oc3nccc4c5c(ccc34)N(C)CCO5)CN2C(=O)[C@@H](NC(=O)OC(C)(C)C)[C@H](C)C1` [Compound 5275, tert-butyl ((2R,6S,7R,9S,13aS,14aR,16aS,Z)-14a-((cyclopropylsulfonyl)carbamoyl)-7,9-dimethyl-2-((4-methyl-3,4-dihydro-2H-[1,4]oxazino[2,3-f]isoquinolin-7-yl)oxy)-5,16-dioxo-1,2,3,5,6,7,8,9,10,11,13a,14,14a,15,16,16a-hexadecahydrocyclopropa[e]pyrrolo[1,2-a][1,4]diazacyclopentadecin-6-yl)carbamate], the EC50 was below 5.46 nM in test [1] (read-out: LE_1a (EC50, range)) and below 5.46 nM in test [2] (read-out: LE_1b (EC50, range)).
For `C[C@@H]1CC/C=C\[C@@H]2C[C@@]2(C(=O)NS(=O)(=O)C2CC2)NC(=O)[C@@H]2C[C@@H](Oc3nccc4c5c(ccc34)N(C)CCO5)CN2C(=O)[C@@H](NC(=O)OC(C)(C)C)[C@H](C)C1` [Compound 5276, tert-butyl ((2R,6S,7R,9R,13aS,14aR,16aS,Z)-14a-((cyclopropylsulfonyl)carbamoyl)-7,9-dimethyl-2-((4-methyl-3,4-dihydro-2H-[1,4]oxazino[2,3-f]isoquinolin-7-yl)oxy)-5,16-dioxo-1,2,3,5,6,7,8,9,10,11,13a,14,14a,15,16,16a-hexadecahydrocyclopropa[e]pyrrolo[1,2-a][1,4]diazacyclopentadecin-6-yl)carbamate], the EC50 in test [1] (read-out: LE_1a (EC50, range)) was below 5.46 nM; in test [2] (read-out: LE_1b (EC50, range)) it was below 5.46 nM.
Consider `C[C@H]1CC/C=C\[C@@H]2C[C@@]2(C(=O)NS(=O)(=O)C2CC2)NC(=O)[C@@H]2C[C@@H](Oc3nccc4c5c(ccc34)N(C)CCO5)CN2C(=O)[C@@H](NC(=O)OC(C)(C)C(F)(F)F)[C@H](C)C1` [Compound 5277, 1,1,1-trifluoro-2-methylpropan-2-yl((2R,6S,7R,9S,13aS,14aR,16aS,Z)-14a-((cyclopropylsulfonyl)carbamoyl)-7,9-dimethyl-2-((4-methyl-3,4-dihydro-2H-[1,4]oxazino[2,3-f]isoquinolin-7-yl)oxy)-5,16-dioxo-1,2,3,5,6,7,8,9,10,11,13a,14,14a,15,16,16a-hexadecahydrocyclopropa[e]pyrrolo[1,2-a][1,4]diazacyclopentadecin-6-yl)carbamate], for which the EC50 in test [1] (read-out: LE_1a (EC50, range)) is below 5.46 nM; in test [2] (read-out: LE_1b (EC50, range)) it was below 5.46 nM.
Turning to `C[C@@H]1CC/C=C\[C@@H]2C[C@@]2(C(=O)NS(=O)(=O)C2CC2)NC(=O)[C@@H]2C[C@@H](Oc3nccc4c5c(ccc34)N(C)CCO5)CN2C(=O)[C@@H](NC(=O)OC(C)(C)C(F)(F)F)[C@H](C)C1` [Compound 5278, 1,1,1-trifluoro-2-methylpropan-2-yl((2R,6S,7R,9R,13aS,14aR,16aS,Z)-14a-((cyclopropylsulfonyl)carbamoyl)-7,9-dimethyl-2-((4-methyl-3,4-dihydro-2H-[1,4]oxazino[2,3-f]isoquinolin-7-yl)oxy)-5,16-dioxo-1,2,3,5,6,7,8,9,10,11,13a,14,14a,15,16,16a-hexadecahydrocyclopropa[e]pyrrolo[1,2-a][1,4]diazacyclopentadecin-6-yl)carbamate], the half-maximal effective concentration (EC50) in test [1] (read-out: LE_1a (EC50, range)) is below 5.46 nM; in test [2] (read-out: LE_1b (EC50, range)) it was below 5.46 nM.
On to `[2H]C([2H])([2H])C(OC(=O)N[C@@H]1C(=O)N2C[C@H](Oc3nccc4c5c(ccc34)N(C)CCO5)C[C@H]2C(=O)N[C@]2(C(=O)NS(=O)(=O)C3CC3)C[C@H]2/C=C\CC[C@H](C)C[C@H]1C)(C([2H])([2H])[2H])C(F)(F)F` [Compound 5279, 1,1,1,3,3,3-hexadeutero-2-(trifluoromethyl)propan-2-yl((2R,6S,7R,9S,13aS,14aR,16aS,Z)-14a-((cyclopropylsulfonyl)carbamoyl)-7,9-dimethyl-2-((4-methyl-3,4-dihydro-2H-[1,4]oxazino[2,3-f]isoquinolin-7-yl)oxy)-5,16-dioxo-1,2,3,5,6,7,8,9,10,11,13a,14,14a,15,16,16a-hexadecahydrocyclopropa[e]pyrrolo[1,2-a][1,4]diazacyclopentadecin-6-yl)carbamate], for which the EC50 in test [1] (read-out: LE_1a (EC50, range)) lay in the range of 4.82 to 103 nM; in test [2] (read-out: LE_1b (EC50, range)), 4.82 to 103 nM.
In the case of `[2H]C([2H])([2H])C(OC(=O)N[C@@H]1C(=O)N2C[C@H](Oc3nccc4c5c(ccc34)N(C)CCO5)C[C@H]2C(=O)N[C@]2(C(=O)NS(=O)(=O)C3CC3)C[C@H]2/C=C\CC[C@@H](C)C[C@H]1C)(C([2H])([2H])[2H])C(F)(F)F` [Compound 5280, 1,1,1,3,3,3-hexadeutero-2-(trifluoromethyl)propan-2-yl((2R,6S,7R,9R,13aS,14aR,16aS,Z)-14a-((cyclopropylsulfonyl)carbamoyl)-7,9-dimethyl-2-((4-methyl-3,4-dihydro-2H-[1,4]oxazino[2,3-f]isoquinolin-7-yl)oxy)-5,16-dioxo-1,2,3,5,6,7,8,9,10,11,13a,14,14a,15,16,16a-hexadecahydrocyclopropa[e]pyrrolo[1,2-a][1,4]diazacyclopentadecin-6-yl)carbamate], the EC50 in test [1] (read-out: LE_1a (EC50, range)) is below 5.46 nM; in test [2] (read-out: LE_1b (EC50, range)) it was below 5.46 nM.
In the case of `C[C@H]1CC/C=C\[C@@H]2C[C@@]2(C(=O)NS(=O)(=O)C2CC2)NC(=O)[C@@H]2C[C@@H](Oc3nccc4c5c(ccc34)N(C)CCO5)CN2C(=O)[C@@H](NC(=O)OC(C)(C)C(C)(F)F)[C@H](C)C1` [Compound 5281, 3,3-difluoro-2-methylbutan-2-yl((2R,6S,7R,9S,13aS,14aR,16aS,Z)-14a-((cyclopropylsulfonyl)carbamoyl)-7,9-dimethyl-2-((4-methyl-3,4-dihydro-2H-[1,4]oxazino[2,3-f]isoquinolin-7-yl)oxy)-5,16-dioxo-1,2,3,5,6,7,8,9,10,11,13a,14,14a,15,16,16a-hexadecahydrocyclopropa[e]pyrrolo[1,2-a][1,4]diazacyclopentadecin-6-yl)carbamate], the EC50 is below 5.46 nM in test [1] (read-out: LE_1a (EC50, range)) and below 5.46 nM in test [2] (read-out: LE_1b (EC50, range)).
With `C[C@@H]1CC/C=C\[C@@H]2C[C@@]2(C(=O)NS(=O)(=O)C2CC2)NC(=O)[C@@H]2C[C@@H](Oc3nccc4c5c(ccc34)N(C)CCO5)CN2C(=O)[C@@H](NC(=O)OC(C)(C)C(C)(F)F)[C@H](C)C1` [Compound 5282, 3,3-difluoro-2-methylbutan-2-yl((2R,6S,7R,9R,13aS,14aR,16aS,Z)-14a-((cyclopropylsulfonyl)carbamoyl)-7,9-dimethyl-2-((4-methyl-3,4-dihydro-2H-[1,4]oxazino[2,3-f]isoquinolin-7-yl)oxy)-5,16-dioxo-1,2,3,5,6,7,8,9,10,11,13a,14,14a,15,16,16a-hexadecahydrocyclopropa[e]pyrrolo[1,2-a][1,4]diazacyclopentadecin-6-yl)carbamate], the EC50 in test [1] (read-out: LE_1a (EC50, range)) was below 5.46 nM; in test [2] (read-out: LE_1b (EC50, range)) it was below 5.46 nM.
Turning to `C[C@H]1CC/C=C\[C@@H]2C[C@@]2(C(=O)NS(=O)(=O)C2CC2)NC(=O)[C@@H]2C[C@@H](Oc3nccc4c5c(ccc34)N(C)CCO5)CN2C(=O)[C@@H](NC(=O)NC(C)(C)C)[C@H](C)C1` [Compound 5283, (2R,6S,7R,9S,13aS,14aR,16aS,Z)-6-(3-(tert-butyl)ureido)-N-(cyclopropylsulfonyl)-7,9-dimethyl-2-((4-methyl-3,4-dihydro-2H-[1,4]oxazino[2,3-f]isoquinolin-7-yl)oxy)-5,16-dioxo-1,2,3,5,6,7,8,9,10,11,13a,14,14a,15,16,16a-hexadecahydrocyclopropa[e]pyrrolo[1,2-a][1,4]diazacyclopentadecine-14a-carboxamide], the EC50 is 4.82 nM in test [1] (read-out: LE_1a (EC50)); below 5.46 nM in test [1] (read-out: LE_1a (EC50, range)); 3.12 nM in test [2] (read-out: LE_1b (EC50)); below 5.46 nM in test [2] (read-out: LE_1b (EC50, range)).
`C[C@@H]1CC/C=C\[C@@H]2C[C@@]2(C(=O)NS(=O)(=O)C2CC2)NC(=O)[C@@H]2C[C@@H](Oc3nccc4c5c(ccc34)N(C)CCO5)CN2C(=O)[C@@H](NC(=O)NC(C)(C)C)[C@H](C)C1` [Compound 5284, (2R,6S,7R,9R,13aS,14aR,16aS,Z)-6-(3-(tert-butyl)ureido)-N-(cyclopropylsulfonyl)-7,9-dimethyl-2-((4-methyl-3,4-dihydro-2H-[1,4]oxazino[2,3-f]isoquinolin-7-yl)oxy)-5,16-dioxo-1,2,3,5,6,7,8,9,10,11,13a,14,14a,15,16,16a-hexadecahydrocyclopropa[e]pyrrolo[1,2-a][1,4]diazacyclopentadecine-14a-carboxamide]: the EC50 is below 5.46 nM in test [1] (read-out: LE_1a (EC50, range)) and below 5.46 nM in test [2] (read-out: LE_1b (EC50, range)).
As for `[2H]C([2H])([2H])C(C)(OC(=O)N[C@@H]1C(=O)N2C[C@H](Oc3nccc4c5c(ccc34)N(C)CCO5)C[C@H]2C(=O)N[C@]2(C(=O)NS(=O)(=O)C3CC3)C[C@H]2/C=C\CC[C@H](C)C[C@H]1C)C([2H])([2H])[2H]` [Compound 5285, 1,1,1,3,3,3-hexadeutero-2-methylpropan-2-yl((2R,6S,7R,9S,13aS,14aR,16aS,Z)-14a-((cyclopropylsulfonyl)carbamoyl)-7,9-dimethyl-2-((4-methyl-3,4-dihydro-2H-[1,4]oxazino[2,3-f]isoquinolin-7-yl)oxy)-5,16-dioxo-1,2,3,5,6,7,8,9,10,11,13a,14,14a,15,16,16a-hexadecahydrocyclopropa[e]pyrrolo[1,2-a][1,4]diazacyclopentadecin-6-yl)carbamate], the concentration giving a half-maximal response (EC50) in test [1] (read-out: LE_1a (EC50, range)) was 4.82 to 103 nM; in test [2] (read-out: LE_1b (EC50, range)), below 5.46 nM.

The record behind these values is patent US9499550B2 (BRISTOL-MYERS SQUIBB COMPANY, priority 2012, dated 2016).
